Results reported in patent publication US12723063B2, “GIPR-agonist compounds” (Eli Lilly and Company, priority 2019, dated 2026).
*1 amine or outer side, *2 acyl side, *3 side chain or, on linkers, in order; H or OH if unused. Where a SMILES comes first, the peptide text is derived from it. Side-chain parts run from the residue outwards. [ ]: non-standard residue; d: D form. The star is where a group is joined. C20 diacid = O=C(O)CCCCCCCCCCCCCCCCCCC(=O)*; C18 diacid = O=C(O)CCCCCCCCCCCCCCCCC(=O)*; αMePhe(2-F) = C[C@](N)(Cc1ccccc1F)C(=O)O; γGlu = O=C(O)[C@H](CCC(=O)[*:2])N[*:1]; 4Pal = N[C@@H](Cc1ccncc1)C(=O)O; αMeL = CC(C)C[C@](C)(N)C(=O)O; Iva = CC[C@](C)(N)C(=O)O; AEEA = NCCOCCOCC(=O)O; Aib = CC(C)(N)C(=O)O

Experiments:
human GcgR = biological target: T1, human GcgR (Homo sapiens, UniProt P47871); test: [125I]-Glucagon binding, SPA with WGA beads, 0.1% bacitracin; conditions: geometric mean, read-out: hGcgR Ki
T1 construct: expressed in transfected cells; crude membranes
T1 sequence (P47871 26-477): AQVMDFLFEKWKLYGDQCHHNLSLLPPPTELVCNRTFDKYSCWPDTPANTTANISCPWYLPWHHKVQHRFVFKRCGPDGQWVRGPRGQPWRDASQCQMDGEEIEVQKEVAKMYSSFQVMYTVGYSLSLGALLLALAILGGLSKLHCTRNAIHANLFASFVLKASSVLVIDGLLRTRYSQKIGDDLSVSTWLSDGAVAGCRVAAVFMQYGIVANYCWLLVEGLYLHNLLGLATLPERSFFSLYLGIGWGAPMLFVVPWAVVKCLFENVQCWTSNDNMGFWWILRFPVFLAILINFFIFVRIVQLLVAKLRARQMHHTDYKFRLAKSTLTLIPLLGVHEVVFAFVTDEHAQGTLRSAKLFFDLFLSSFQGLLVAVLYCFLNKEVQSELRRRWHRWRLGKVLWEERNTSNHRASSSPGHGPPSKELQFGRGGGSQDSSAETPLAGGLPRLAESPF
Summary of the method: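 SPA competition binding with WGA beads on crude membranes from HEK293 cells stably expressing hGcgR. Buffer: 25 mM HEPES pH 7.4, 2.5 mM CaCl2, 1 mM MgCl2, 0.1% bacitracin, 0.003% Tween-20; 10-point 3-fold dilutions, NSB with 1 μM Gcg.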

[1] = biological target: T2, human GLP-1 receptor (GLP-1R) (Homo sapiens, UniProt P43220); test: cAMP functional assay (HTRF) in HEK293 cells in presence of 0.1% casein; type: cell-based; conditions: HEK293 cells expressing human GLP-1R, geometric mean, read-out: hGLP1R cAMP Rel EC50 nM (SEM, n)
T2 construct: expressed in transfected cells; host or cells: HEK293
T2 sequence (P43220 24-463): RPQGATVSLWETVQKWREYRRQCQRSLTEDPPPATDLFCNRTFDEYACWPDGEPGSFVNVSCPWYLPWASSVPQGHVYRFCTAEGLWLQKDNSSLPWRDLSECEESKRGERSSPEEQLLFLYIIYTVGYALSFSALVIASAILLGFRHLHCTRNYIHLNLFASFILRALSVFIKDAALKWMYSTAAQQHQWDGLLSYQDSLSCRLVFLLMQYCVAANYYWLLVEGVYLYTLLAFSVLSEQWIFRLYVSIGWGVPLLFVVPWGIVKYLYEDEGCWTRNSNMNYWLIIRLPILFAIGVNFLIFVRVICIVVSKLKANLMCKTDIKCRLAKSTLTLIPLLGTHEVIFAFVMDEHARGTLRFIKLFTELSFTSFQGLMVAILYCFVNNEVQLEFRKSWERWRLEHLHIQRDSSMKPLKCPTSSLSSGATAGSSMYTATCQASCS

Row | SMILES | Ki (human GcgR) | EC50 [1]
1 | CC[C@H](C)[C@H](NC(=O)[C@H](CO)NC(=O)[C@H](Cc1ccc(O)cc1)NC(=O)[C@H](CC(=O)O)NC(=O)[C@H](CO)NC(=O)[C@@H](NC(=O)[C@H](Cc1ccccc1)NC(=O)[C@@H](NC(=O)CNC(=O)[C@H](CCC(=O)O)NC(=O)[C@@H](C)NC(=O)[C@@H](N)Cc1ccc(O)cc1)[C@@H](C)O)[C@@H](C)CC)C(=O)N[C@@H](CC(C)C)C(=O)N[C@@H](CC(C)C)C(=O)N[C@@H](CC(=O)O)C(=O)N[C@@H](CCCCN)C(=O)N[C@@H](CCCCNC(=O)COCCOCCNC(=O)COCCOCCNC(=O)CC[C@H](NC(=O)CCCCCCCCCCCCCCCCC(=O)O)C(=O)O)C(=O)N[C@@H](C)C(=O)N[C@@H](CCC(N)=O)C(=O)NC(C)(C)C(=O)N[C@@H](CCC(=O)O)C(=O)N[C@@H](Cc1ccccc1)C(=O)N[C@H](C(=O)N[C@@H](CC(N)=O)C(=O)N[C@@H](Cc1c[nH]c2ccccc12)C(=O)N[C@@H](CC(C)C)C(=O)N[C@@H](CC(C)C)C(=O)N[C@@H](CCC(=O)O)C(=O)NCC(=O)NCC(=O)N1CCC[C@H]1C(=O)N[C@@H](CO)C(=O)N[C@@H](CO)C(=O)NCC(=O)N[C@@H](C)C(=O)N1CCC[C@H]1C(=O)N1CCC[C@H]1C(=O)N1CCC[C@H]1C(=O)N[C@@H](CO)C(N)=O)C(C)C [Example 28] (H-Y[dA]EGTFISDYSILLDKK([AEEA-AEEA-γGlu-C18 diacid])AQ[Aib]EFVNWLLEGGPSSGAPPPS-NH2) | 86.8 nM | > 5000 nM
2 | CC[C@H](C)[C@H](NC(=O)[C@H](CO)NC(=O)[C@H](Cc1ccc(O)cc1)NC(=O)[C@H](CC(=O)O)NC(=O)[C@H](CO)NC(=O)[C@@H](NC(=O)[C@H](Cc1ccccc1)NC(=O)[C@@H](NC(=O)CNC(=O)[C@H](CCC(=O)O)NC(=O)[C@@H](C)NC(=O)[C@@H](N)Cc1ccc(O)cc1)[C@@H](C)O)[C@@H](C)CC)C(=O)N[C@@H](CC(C)C)C(=O)N[C@@H](CC(C)C)C(=O)N[C@@H](CC(=O)O)C(=O)N[C@@H](CCCCN)C(=O)N[C@@H](CCCCNC(=O)COCCOCCNC(=O)COCCOCCNC(=O)CC[C@H](NC(=O)CCCCCCCCCCCCCCCCC(=O)O)C(=O)O)C(=O)N[C@@H](C)C(=O)N[C@@H](CCC(N)=O)C(=O)NC(C)(C)C(=O)N[C@@H](CCC(=O)O)C(=O)N[C@@H](Cc1ccccc1)C(=O)N[C@H](C(=O)N[C@@H](CCC(=O)O)C(=O)N[C@@H](Cc1c[nH]c2ccccc12)C(=O)N[C@@H](CC(C)C)C(=O)N[C@@H](CC(C)C)C(=O)N[C@@H](C)C(=O)NCC(=O)NCC(=O)N1CCC[C@H]1C(=O)N[C@@H](CO)C(=O)N[C@@H](CO)C(=O)NCC(=O)N[C@@H](C)C(=O)N1CCC[C@H]1C(=O)N1CCC[C@H]1C(=O)N1CCC[C@H]1C(=O)N[C@@H](CO)C(N)=O)C(C)C [Example 29] (H-Y[dA]EGTFISDYSILLDKK([AEEA-AEEA-γGlu-C18 diacid])AQ[Aib]EFVEWLLAGGPSSGAPPPS-NH2) | 133 nM | > 5000 nM
3 | CC[C@H](C)[C@H](NC(=O)[C@H](CO)NC(=O)[C@H](Cc1ccc(O)cc1)NC(=O)[C@H](CC(=O)O)NC(=O)[C@H](CO)NC(=O)[C@@H](NC(=O)[C@](C)(Cc1ccccc1F)NC(=O)[C@@H](NC(=O)CNC(=O)[C@H](CCC(=O)O)NC(=O)[C@H](C)NC(=O)[C@@H](Cc1ccc(O)cc1)NC(C)=O)[C@@H](C)O)[C@@H](C)CC)C(=O)N[C@@H](C)C(=O)N[C@@H](CC(C)C)C(=O)N[C@@H](CC(=O)O)C(=O)N[C@@H](CCCCN)C(=O)N[C@@H](CCCCNC(=O)COCCOCCNC(=O)COCCOCCNC(=O)CC[C@H](NC(=O)CCCCCCCCCCCCCCCCC(=O)O)C(=O)O)C(=O)N[C@@H](Cc1c[nH]cn1)C(=O)N[C@@H](CCC(N)=O)C(=O)NC(C)(C)C(=O)N[C@@H](CCC(=O)O)C(=O)N[C@@H](Cc1ccccc1)C(=O)N[C@H](C(=O)N[C@@H](CC(N)=O)C(=O)N[C@@H](Cc1ccc(O)cc1)C(=O)N[C@@H](CC(C)C)C(=O)N[C@@H](CC(C)C)C(=O)N[C@@H](C)C(=O)NCC(=O)NCC(=O)N1CCC[C@H]1C(=O)N[C@@H](CO)C(=O)N[C@@H](CO)C(=O)NCC(=O)N[C@@H](C)C(=O)N1CCC[C@H]1C(=O)N1CCC[C@H]1C(=O)N1CCC[C@H]1C(=O)N[C@@H](CO)C(N)=O)C(C)C [Example 30] (Ac-[dY]AEGT[αMePhe(2-F)]ISDYSIALDKK([AEEA-AEEA-γGlu-C18 diacid])HQ[Aib]EFVNYLLAGGPSSGAPPPS-NH2) | 407 nM | > 5000 nM
4 | CC[C@H](C)[C@H](NC(=O)[C@H](CO)NC(=O)[C@H](Cc1ccc(O)cc1)NC(=O)[C@H](CC(=O)O)NC(=O)[C@H](CO)NC(=O)[C@@H](NC(=O)[C@H](Cc1ccccc1)NC(=O)[C@@H](NC(=O)CNC(=O)[C@H](CCC(=O)O)NC(=O)C(C)(C)NC(=O)[C@@H](N)Cc1ccc(O)cc1)[C@@H](C)O)[C@@H](C)CC)C(=O)N[C@@H](CC(C)C)C(=O)N[C@@H](CC(C)C)C(=O)N[C@@H](CC(=O)O)C(=O)N[C@@H](CCCCN)C(=O)N[C@@H](CCCCNC(=O)COCCOCCNC(=O)COCCOCCNC(=O)CC[C@H](NC(=O)CCCCCCCCCCCCCCCCC(=O)O)C(=O)O)C(=O)N[C@@H](Cc1c[nH]cn1)C(=O)N[C@@H](CCC(N)=O)C(=O)NC(C)(C)C(=O)N[C@@H](CC(=O)O)C(=O)N[C@@H](Cc1ccccc1)C(=O)N[C@H](C(=O)N[C@@H](CC(N)=O)C(=O)N[C@@H](Cc1ccc(O)cc1)C(=O)N[C@@H](CC(C)C)C(=O)N[C@@H](CC(C)C)C(=O)N[C@@H](C)C(=O)N[C@@H](C)C(=O)NCC(=O)N1CCC[C@H]1C(=O)N[C@@H](CO)C(=O)N[C@@H](CO)C(=O)NCC(=O)N[C@@H](C)C(=O)N1CCC[C@H]1C(=O)N1CCC[C@H]1C(=O)N1CCC[C@H]1C(=O)N[C@@H](CO)C(N)=O)C(C)C [Example 31] (H-Y[Aib]EGTFISDYSILLDKK([AEEA-AEEA-γGlu-C18 diacid])HQ[Aib]DFVNYLLAAGPSSGAPPPS-NH2) | > 959 nM | > 5000 nM
5 | CC[C@H](C)[C@H](NC(=O)[C@H](CC(C)C)NC(=O)[C@@H](NC(=O)CNC(=O)[C@H](CCC(=O)O)NC(=O)C(C)(C)NC(=O)[C@@H](N)Cc1ccc(O)cc1)[C@@H](C)O)C(=O)N[C@@H](CO)C(=O)N[C@@H](CC(=O)O)C(=O)N[C@@H](Cc1ccc(O)cc1)C(=O)N[C@@H](CO)C(=O)N[C@H](C(=O)N[C@@](C)(CC(C)C)C(=O)N[C@@H](CC(C)C)C(=O)N[C@@H](CC(=O)O)C(=O)N[C@@H](CCCCN)C(=O)N[C@@H](CCCCNC(=O)COCCOCCNC(=O)COCCOCCNC(=O)CC[C@H](NC(=O)CCCCCCCCCCCCCCCCCCC(=O)O)C(=O)O)C(=O)N[C@@H](Cc1c[nH]cn1)C(=O)N[C@@H](CCC(N)=O)C(=O)NC(C)(C)C(=O)N[C@@H](CCC(=O)O)C(=O)N[C@@H](Cc1ccccc1)C(=O)N[C@H](C(=O)N[C@@H](CCC(=O)O)C(=O)N[C@@H](Cc1ccc(O)cc1)C(=O)N[C@@H](CC(C)C)C(=O)N[C@@H](CC(C)C)C(=O)N[C@@H](CCC(=O)O)C(=O)NCC(=O)NCC(=O)N1CCC[C@H]1C(=O)N[C@@H](CO)C(=O)N[C@@H](CO)C(=O)NCC(=O)N[C@@H](C)C(=O)N1CCC[C@H]1C(=O)N1CCC[C@H]1C(=O)N1CCC[C@H]1C(=O)N[C@@H](CO)C(N)=O)C(C)C)[C@@H](C)CC [Example 73] (H-Y[Aib]EGTLISDYSI[αMeL]LDKK([AEEA-AEEA-γGlu-C20 diacid])HQ[Aib]EFVEYLLEGGPSSGAPPPS-NH2) | 292 nM | > 5000 nM
6 | CC[C@H](C)[C@H](NC(=O)[C@H](CO)NC(=O)[C@H](Cc1ccc(O)cc1)NC(=O)[C@H](CC(=O)O)NC(=O)[C@H](CO)NC(=O)[C@@H](NC(=O)[C@](C)(CC)NC(=O)[C@@H](NC(=O)CNC(=O)[C@H](CCC(=O)O)NC(=O)C(C)(C)NC(=O)[C@@H](N)Cc1ccc(O)cc1)[C@@H](C)O)[C@@H](C)CC)C(=O)N[C@@](C)(CC(C)C)C(=O)N[C@@H](CC(C)C)C(=O)N[C@@H](CC(=O)O)C(=O)N[C@@H](CCCCN)C(=O)N[C@@H](CCCCNC(=O)COCCOCCNC(=O)COCCOCCNC(=O)CC[C@H](NC(=O)CCCCCCCCCCCCCCCCCCC(=O)O)C(=O)O)C(=O)N[C@@H](Cc1c[nH]cn1)C(=O)N[C@@H](CCC(N)=O)C(=O)NC(C)(C)C(=O)N[C@@H](CC(=O)O)C(=O)N[C@@H](Cc1ccccc1)C(=O)N[C@H](C(=O)N[C@@H](CCC(=O)O)C(=O)N[C@@H](Cc1ccncc1)C(=O)N[C@@H](CC(C)C)C(=O)N[C@@H](CC(C)C)C(=O)N[C@@H](CCC(=O)O)C(=O)NCC(=O)NCC(=O)N1CCC[C@H]1C(=O)N[C@@H](CO)C(=O)N[C@@H](CO)C(=O)NCC(=O)N[C@@H](C)C(=O)N1CCC[C@H]1C(=O)N1CCC[C@H]1C(=O)N1CCC[C@H]1C(=O)N[C@@H](CO)C(N)=O)C(C)C [Example 74] (H-Y[Aib]EGT[Iva]ISDYSI[αMeL]LDKK([AEEA-AEEA-γGlu-C20 diacid])HQ[Aib]DFVE[4Pal]LLEGGPSSGAPPPS-NH2) | 511 nM | > 5000 nM
7 | CC[C@H](C)[C@H](NC(=O)[C@H](CO)NC(=O)[C@H](Cc1ccc(O)cc1)NC(=O)[C@H](CC(=O)O)NC(=O)[C@H](CO)NC(=O)[C@@H](NC(=O)[C@](C)(CC)NC(=O)[C@@H](NC(=O)CNC(=O)[C@H](CCC(=O)O)NC(=O)C(C)(C)NC(=O)[C@@H](N)Cc1ccc(O)cc1)[C@@H](C)O)[C@@H](C)CC)C(=O)N[C@@](C)(CC(C)C)C(=O)N[C@@H](CC(C)C)C(=O)N[C@@H](CC(=O)O)C(=O)N[C@@H](CCCCN)C(=O)N[C@@H](CCCCNC(=O)COCCOCCNC(=O)COCCOCCNC(=O)CC[C@H](NC(=O)CCCCCCCCCCCCCCCCCCC(=O)O)C(=O)O)C(=O)N[C@@H](Cc1c[nH]cn1)C(=O)N[C@@H](CCC(N)=O)C(=O)NC(C)(C)C(=O)N[C@@H](CC(=O)O)C(=O)N[C@@H](Cc1ccccc1)C(=O)N[C@H](C(=O)N[C@@H](CCC(=O)O)C(=O)N[C@@H](Cc1ccncc1)C(=O)N[C@@H](CC(C)C)C(=O)N[C@@H](CC(C)C)C(=O)N[C@@H](CCC(=O)O)C(=O)N[C@H](C(=O)NCC(=O)N1CCC[C@H]1C(=O)N[C@@H](CO)C(=O)N[C@@H](CO)C(=O)NCC(=O)N[C@@H](C)C(=O)N1CCC[C@H]1C(=O)N1CCC[C@H]1C(=O)N1CCC[C@H]1C(=O)N[C@@H](CO)C(N)=O)[C@@H](C)O)C(C)C [Example 75] (H-Y[Aib]EGT[Iva]ISDYSI[αMeL]LDKK([AEEA-AEEA-γGlu-C20 diacid])HQ[Aib]DFVE[4Pal]LLETGPSSGAPPPS-NH2) | > 958 nM | > 5000 nM
